Reference: patent US7960380B2, “Non-anilinic derivatives of isothiazol-3(2H)-one 1,1-dioxides as liver X receptor modulators” (AstraZeneca AB, priority 2005, dated 2011)

Tests used:
[1] = molecular target: T1, human LXRalpha ligand binding domain (GAL4 fusion) (Homo sapiens, UniProt Q13133); assay: Transactivation (reporter gene) assay in U2/OS cells (LXRalpha); type: cell-based; conditions: LXRα, GAL4-LXR LBD luciferase reporter
T1 construct: human LXRalpha (amino acid 205-447); expressed in transfected cells; host or cells: U2/OS osteosarcoma cells (electroporated with pSGGAL-LXRalpha)
T1 sequence (Q13133 205-447): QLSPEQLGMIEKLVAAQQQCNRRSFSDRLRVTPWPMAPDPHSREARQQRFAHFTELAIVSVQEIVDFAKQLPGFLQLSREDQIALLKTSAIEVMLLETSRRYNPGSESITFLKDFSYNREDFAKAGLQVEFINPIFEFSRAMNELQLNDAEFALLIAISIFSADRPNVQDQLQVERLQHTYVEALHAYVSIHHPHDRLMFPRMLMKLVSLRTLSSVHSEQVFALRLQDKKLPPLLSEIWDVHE
Procedure: Expression vectors were prepared by inserting the ligand binding domain cDNA (complementary DNA) of human LXRalpha (amino acid 205-447) and LXRbeta (amino acid 216-461) in frame with, 3′ to the yeast GAL4 transcription factor DNA binding domain and the nuclear localization signal from the T-antigen of Polyoma Virus in the eucaryotic expression vector pSG5 (Stratagene). The resulting expression vectors pSGGAL-LXRalpha and pSGGAL-LXRbeta were used in cotransfection experiments together with the pGL3 luciferase reporter plasmid containing a minimal SV40 promoter (Promega) and five copies of the UAS GAL4 recognition site. 2.5 μg pSGGAL-LXRalpha or beta were mixed with 25 μg pGL3 5×UAS and 22.5 μg pBluscript (Stratagene) in 0.95 mL ice cold PBS containing approx. 4-9 milj. U2/OS osteosarcoma cells. After a five minute incubation on ice the cell/DNA mixture was electroporated in 0.4 cm cuvettes at 960 μF, 230 V using a BioRad electroporator and diluted to 0.32 milj cells/mL in complete DMEM [Dulbecco's Modified Eagle Medium w/o phenol red, (Gibco 11880-028) including 10% FBS (Foetal Bovine Serum), 1% PEST (Penicillin Streptomycin), 20 mM Hepes, 2 mM L-Glutamine and 0.36% Glucose Gibco 31966-021] medium. […] Luciferase activity was measured as Luminescence in the Wallac Victor reader after 15 min. incubation at room temperature. […]

[2] = molecular target: T2, human LXRalpha Ligand Binding Domain (amino acid 205-447) (Homo sapiens, UniProt Q13133); assay: Co-activator recruitment assay (LXRalpha); type: biochemical; conditions: LXRα; SRC-1 peptide recruitment, time-resolved fluorescence; read-out: EC50 for LXRα in the coactivator recruitment assay
T2 construct: human LXRalpha (amino acid 205-447); made in house; host or cells: E. coli
T2 sequence (Q13133 205-447): T1 sequence (Q13133 205-447)
Excerpt: The Ligand Binding Domain (LBD) of human LXRalpha (amino acid 205-447) and LXRbeta (amino acid 216-461) was produced by recombinant techniques in E coli. A fragment of the human Steroid Receptor Co-Activator-1 (SRC-1) was produced as a synthetic peptide. An anti-6×His-antibody coupled with Europium (Eu^3+) was used to recognize the His-tag on the LXR-LBD and Allophycocyanin (APC) coupled to streptavidin was used to recognize the biotinylated SRC-1. Agonist binding to LXRalpha or LXRbeta enhances the affinity of LXR towards SRC-1 and thereby brings Eu^3+ and APC in close proximity. Eu^3+ is excited at 337 nm and emitts light at 620 nm. This emission, when in close proximity, excites APC to emit light at 665 nm.
Compounds (10 mM) in DMSO were diluted (1/3) in DMSO in 10 concentrations. This dilution plates were further diluted in buffer {20 mM [Tris(hydroxymethyl)aminomethane] pH 7.5, 0.125% CHAPS {3-[(3-Cholamidopropyl)dimethylammonio]-1-propanesulfonate}, 2 mM DTT (Dithiothreitol) and 0.05% BSA (Bovine Serum Albumin)} in order to reduce DMSO concentration, 0.5 μl to 13.5 μl. To this, 6 μl assay mix was added, giving an maximal assay concentration of 83 μM, and the plates (384-well V-groove plates) were incubated at room temperature for 60 to 80 min. […] Time-resolved fluorescence readings were done in a Wallac Victor reader at 665 nm followed by reading at 615 nm. […]

Compound	EC50 [1] [nM]	EC50 [2] [nM]
O=C1C(NCCCCc2ccccc2)=C(c2ccccc2)S(=O)(=O)N1C1CCCC1 [Example 2, 2-Cyclopentyl-5-phenyl-4-[(4-phenylbutyl)amino]isothiazol-3(2H)-one 1,1-dioxide]	1360	–
CCCCCCNC1=C(c2ccccc2)S(=O)(=O)N(CCCC)C1=O [Example 6, 2-Butyl-4-(hexylamino)-5-phenylisothiazol-3(2H)-one 1,1-dioxide]	–	580
CCCCN1C(=O)C(NCCCOc2cccc(NC(C)=O)c2)=C(c2ccccc2)S1(=O)=O [Example 7, N-(3-{3-[(2-Butyl-1,1-dioxido-3-oxo-5-phenyl-2,3-dihydroisothiazol-4-yl)amino]propoxy}phenyl)acetamide]	270	–
CC(C)N1C(=O)C(NC2CCN(CCC#N)CC2)=C(c2ccccc2)S1(=O)=O [Example 10, 3-{4-[(2-Isopropyl-1,1-dioxido-3-oxo-5-phenyl-2,3-dihydroisothiazol-4-yl)amino]piperidin-1-yl}propanenitrile]	–	1420
